Test results as given in patent EP0788796A1, “URICOSURIC AGENT” (priority 1995, dated 1997).
Read-outs that look alike come from different tables or passages of the source.

How the values were obtained:
[1] = Uric acid excreting and diuretic actions in rats; assay type: in vivo, Wistar rats; conditions: for response vs control in vivo at 300 mg/kg / response vs control in vivo at 1000 mg/kg: Rattus norvegicus, female Wistar rats, urine collected up to 5 h, relative value with control = 100; for response vs control in vivo at 300 mg/kg: 300 mg/kg oral; for response vs control in vivo at 1000 mg/kg: 1000 mg/kg oral; for urine volume: result in words, summary of Table 1
Experimental: Three female Wistar rats (4-week old) in each group were administered orally with 300 or 1000 mg/kg of a test compound in a volume of 10 ml/kg as suspended in an aqueous solution of 0.5% carboxymethylcellulose sodium or 5% gum arabic; immediately thereafter, the animals were loaded orally with 25 ml/kg of physiological saline and the urine was collected up to 5 h after the administration of the test compound. The collected urine was immediately measured quantitatively and the urinary concentration of uric acid was measured by a urikase method in accordance with the procedure of Kabasakalian et al. [Kabasakalian, P. et al.: Clin Chem., 19, 522-524 (1973)] and the urinary excretion of uric acid was calculated. […]

Acute toxicity test = assay type: in vivo; conditions: oral 100 - 1000 mg/kg, female Wistar rats, observed over 24 h
Experimental: Three female Wistar rats (4-week old) in each group were administered orally with 100 - 1000 mg/kg of a test compound in a volume of 10 ml/kg as suspended in an aqueous solution of 0.5% carboxymethylcellulose sodium or 5% gum arabic and were subsequently observed over 24 h. Compounds 1 - 6 were as identified above.

[2] = Uric acid excreting and diuretic actions in rats; assay type: in vivo; conditions: Rattus norvegicus; 30 mg/kg oral, female Wistar rats, urine collected up to 5 h, relative value with control = 100; read-out: Urine Volume (%)
[3] = read-out: Urinary excretion of uric acid (%)

## O=C1CN(S(=O)(=O)C2CCCCC2)C(=O)N1 [Compound 1, 1-(cyclohexylsulfonyl)hydantoin]
[1]; [3]
  response vs control in vivo at 300 mg/kg: 116%
  response vs control in vivo at 1000 mg/kg: 155%
[1]; read-out: Urine Volume (%)
  response vs control in vivo at 300 mg/kg: 96%
  response vs control in vivo at 1000 mg/kg: 124%
Acute toxicity test
  Acute toxicity (Minimal dose causing death: mg/kg): >1000 (no death case at 1000) mg/kg

## O=C1CN(S(=O)(=O)C2CCCCCC2)C(=O)N1 [Compound 2, 1-(cycloheptylsulfonyl)hydantoin]
[1]; [3]
  response vs control in vivo at 300 mg/kg: 152%
  response vs control in vivo at 1000 mg/kg: 256%
[1]; read-out: Urine Volume (%)
  response vs control in vivo at 300 mg/kg: 159%
  response vs control in vivo at 1000 mg/kg: 170%
Acute toxicity test
  Acute toxicity (Minimal dose causing death: mg/kg): >1000 (no death case at 1000) mg/kg

## O=C1CN(S(=O)(=O)C2CCCCCCC2)C(=O)N1 [Compound 3, 1-(cyclooctylsulfonyl)hydantoin]
[1]; [3]
  response vs control in vivo at 300 mg/kg: 103%
  response vs control in vivo at 1000 mg/kg: 245%
[1]; read-out: Urine Volume (%)
  response vs control in vivo at 300 mg/kg: 109%
  response vs control in vivo at 1000 mg/kg: 95%
Acute toxicity test
  Acute toxicity (Minimal dose causing death: mg/kg): >1000 (no death case at 1000) mg/kg

## Cc1cc(S(=O)(=O)N2CC(=O)NC2=O)c(C)s1 [Compound 4, 1-(2,5-dimethylthien-3-ylsulfonyl)hydantoin]
[1]; [3]
  response vs control in vivo at 300 mg/kg: 104%
  response vs control in vivo at 1000 mg/kg: 145%
[1]; read-out: Urine Volume (%)
  response vs control in vivo at 300 mg/kg: 111%
  response vs control in vivo at 1000 mg/kg: 207%
Acute toxicity test
  Acute toxicity (Minimal dose causing death: mg/kg): >1000 (no death case at 1000) mg/kg

## O=C1CN(S(=O)(=O)C2Cc3ccccc3C2)C(=O)N1 [Compound 5, 1-(indan-2-ylsulfonyl)hydantoin]
[1]; [3]
  response vs control in vivo at 300 mg/kg: 102%
  response vs control in vivo at 1000 mg/kg: 144%
[1]; read-out: Urine Volume (%)
  response vs control in vivo at 300 mg/kg: 135%
  response vs control in vivo at 1000 mg/kg: 144%
Acute toxicity test
  Acute toxicity (Minimal dose causing death: mg/kg): >1000 (no death case at 1000) mg/kg

## O=C1CN(S(=O)(=O)c2cc(Cl)ccc2Cl)C(=O)N1 [Compound 6, 1-(2,5-dichlorophenylsulfonyl)hydantoin]
[1]; [3]
  response vs control in vivo at 300 mg/kg: 96%
  response vs control in vivo at 1000 mg/kg: 151%
[1]; read-out: Urine Volume (%)
  response vs control in vivo at 300 mg/kg: 151%
  response vs control in vivo at 1000 mg/kg: 223%
Acute toxicity test
  Acute toxicity (Minimal dose causing death: mg/kg): >1000 (no death case at 1000) mg/kg

## NS(=O)(=O)c1cc(C(=O)O)c(NCc2ccco2)cc1Cl [Furosemide, furosemide, reference compound]
[1]
  urine volume: an increase in the urine volume was observed
[2]
  response vs control in vivo at 30 mg/kg: 215%

## CCCN(CCC)S(=O)(=O)c1ccc(C(=O)O)cc1 [Probenecid, probenecid, reference compound]
[1]; [3]
  response vs control in vivo at 300 mg/kg: 78%
  response vs control in vivo at 1000 mg/kg: 167%
[1]; read-out: Urine Volume (%)
  response vs control in vivo at 300 mg/kg: 60%
  response vs control in vivo at 1000 mg/kg: 20%
[1]
  urine volume: significantly decreased the urine volume
